# Results reported in publication PMC5736936, “Xylopine Induces Oxidative Stress and Causes G2/M Phase Arrest, Triggering Caspase-Mediated Apoptosis by p53-Independent Pathway in HCT116 Cells” (Oxidative Medicine and Cellular Longevity, 2017).
# Test system: HCT116 cells
# Assay: Cellular reactive oxygen species levels (DCF-DA)
# Format: cell-based, human
# Method: The levels of reactive oxygen species (ROS) were measured according to previously described using 2′,7′-dichlorofluorescin diacetate (DCF-DA) (Sigma-Aldrich Co.). In brief, cells were treated with xylopine for 1 and 3 h. Then, the cells were collected, washed with saline, and resuspended in FACS tubes with saline containing 5 μM DCF-DA for 30 min. Finally, the cells were washed with saline and the cell fluorescence was determined by flow cytometry as described above. The protection assay using the antioxidant NAC and catalase (Sigma-Aldrich Co.) was performed. In brief, the cells were pretreated for 1 h with 5 mM NAC or 2000 UI catalase and then incubated with xylopine in the established concentration for 1 h. The cells were then trypsinized and the ROS levels were measured as described above.
compound,measurement,setting,value
"COc1ccc2c(c1)C[C@@H]1NCCc3cc4c(c-2c31)OCO4 [XYL, xylopine]",xylopine-induced increase in intracellular ROS level on cotreatment with NAC,"HCT116, 5 mM NAC 1 h, then 14 μM xylopine 1 h",prevented
same,xylopine-induced increase in intracellular ROS levels on cotreatment with catalase,"HCT116, 2000 UI catalase 1 h, then 14 μM xylopine 1 h",prevented
same,ROS levels,"HCT116, DCF-DA, 1 and 3 h",caused an increase in the ROS levels
